#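 Compound exposure: 48 hours, 5 concentrations, 96-well plates. GI50: concentration for 50% inhibition of growth. TGI marks complete inhibition of growth.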
# How the values were obtained:
# Experiment in all cases: NCI anticancer screen, dose series, 48 h
# [1] = test system: KM12 colon
# [2] = test system: NCI/ADR-RES ovarian
# [3] = test system: OVCAR-5 ovarian
# [4] = test system: A549 NSCLC
# [5] = test system: SN12C renal
# [6] = test system: MDA-MB-468 breast
# [7] = test system: IGROV1 ovarian
# [8] = test system: MOLT-4 leukemia
# [9] = test system: M14 melanoma
# [10] = test system: MDA-MB-435
# [11] = test system: HL-60(TB) leukemia
# [12] = test system: SF-539 CNS
# [13] = test system: HCT-15 colon
# [14] = test system: RPMI-8226 leukemia
# [15] = test system: MALME-3M melanoma
# [16] = test system: SNB-75 CNS
# [17] = test system: UACC-62 melanoma
# [18] = test system: SK-MEL-5 melanoma
# [19] = test system: HT29 colon
# [20] = test system: K-562 leukemia
# [21] = test system: UACC-257 melanoma
# [22] = test system: HOP-92 NSCLC
# [23] = test system: UO-31 renal
# [24] = test system: SK-MEL-2 melanoma
# [25] = test system: NCI-H460 lung
# [26] = test system: NCI-H226 lung
# [27] = test system: TK-10 renal
# [28] = test system: MDA-MB-231 breast
# [29] = test system: EKVX NSCLC
# [30] = test system: HS 578T breast
# [31] = test system: MCF7 breast
# [32] = test system: RXF 393 renal
# [33] = test system: NCI-H522 lung
# [34] = test system: SK-MEL-28 melanoma
# [35] = test system: HCC-2998 colon
# [36] = test system: NCI-H23 lung
# [37] = test system: HOP-62 NSCLC
# [38] = test system: CAKI-1 renal
# [39] = test system: PC-3 prostate
# [40] = test system: BT-549 breast
# [41] = test system: SR leukemia
# [42] = test system: OVCAR-3 ovarian
# [43] = test system: SW-620 colon
# [44] = test system: DU-145 prostate
# [45] = test system: A498 renal
# [46] = test system: SNB-19 CNS
# [47] = test system: CCRF-CEM leukemia
# [48] = test system: OVCAR-4 ovarian
# [49] = test system: ACHN renal
# [50] = test system: T-47D breast
# [51] = test system: COLO 205 colon
# [52] = test system: SF-295 CNS
# [53] = test system: SK-OV-3 ovarian
# [54] = test system: HCT-116 colon
# [55] = test system: LOX IMVI melanoma
# [56] = test system: 786-0 renal
# [57] = test system: OVCAR-8 ovarian
# [58] = test system: SF-268 CNS
smiles,measurement,setting,value
CN1CCN(c2ccc(Nc3nc(N4CCN(S(=O)(=O)c5ccc(F)cc5)CC4)c4sccc4n3)cc2)CC1,GI50,[1],2020 nM
same,TGI,[1],3.97 µM
same,GI50,[2],2000 nM
same,TGI,[2],4.42 µM
same,GI50,[3],2360 nM
same,TGI,[3],5.94 µM
same,GI50,[4],1870 nM
same,TGI,[4],4.44 µM
same,GI50,[5],1730 nM
same,TGI,[5],3.25 µM
same,GI50,[6],1500 nM
same,TGI,[6],2890 nM
same,GI50,[7],2190 nM
same,TGI,[7],4.74 µM
same,GI50,[8],2450 nM
same,TGI,[8],6.05 µM
same,GI50,[9],1840 nM
same,TGI,[9],3.56 µM
same,GI50,[10],1770 nM
same,TGI,[10],3.26 µM
same,GI50,[11],2070 nM
same,TGI,[11],4.25 µM
same,GI50,[12],1750 nM
same,TGI,[12],3180 nM
same,GI50,[13],1670 nM
same,TGI,[13],3.15 µM
same,GI50,[14],2.28 µM
same,TGI,[14],4.98 µM
same,GI50,[15],1720 nM
same,TGI,[15],3150 nM
same,GI50,[16],11 µM
same,TGI,[16],26.8 µM
same,GI50,[17],1710 nM
same,TGI,[17],3.15 µM
same,GI50,[18],1680 nM
same,TGI,[18],3.05 µM
same,GI50,[19],1830 nM
same,TGI,[19],3.6 µM
same,GI50,[20],2130 nM
same,TGI,[20],5.73 µM
same,GI50,[21],1580 nM
same,TGI,[21],3.19 µM
same,GI50,[22],7.3 µM
same,TGI,[22],24.1 µM
same,GI50,[23],13.4 µM
same,TGI,[23],29.1 µM
same,GI50,[24],19.7 µM
same,TGI,[24],39.2 µM
same,GI50,[25],1860 nM
same,TGI,[25],3.45 µM
same,GI50,[26],18.7 µM
same,TGI,[26],48.2 µM
same,GI50,[27],2610 nM
same,TGI,[27],7.37 µM
same,GI50,[28],1900 nM
same,TGI,[28],3.4 µM
same,GI50,[29],3950 nM
same,TGI,[29],22.9 µM
same,GI50,[30],17.8 µM
same,TGI,[30],55.4 µM
same,GI50,[31],1660 nM
same,TGI,[31],3.18 µM
same,GI50,[32],1610 nM
same,TGI,[32],3140 nM
same,GI50,[33],1640 nM
same,TGI,[33],3120 nM
same,GI50,[34],1680 nM
same,TGI,[34],3.15 µM
same,GI50,[35],1690 nM
same,TGI,[35],3.23 µM
same,GI50,[36],4350 nM
same,TGI,[36],18.1 µM
same,GI50,[37],11.5 µM
same,TGI,[37],> 100 µM
same,GI50,[38],2980 nM
same,TGI,[38],10.1 µM
same,GI50,[39],2130 nM
same,TGI,[39],5.11 µM
same,GI50,[40],17.8 µM
same,TGI,[40],53.1 µM
same,GI50,[41],2010 nM
same,TGI,[41],4.85 µM
same,GI50,[42],1910 nM
same,TGI,[42],3.51 µM
same,GI50,[43],1800 nM
same,TGI,[43],3.33 µM
same,GI50,[44],1970 nM
same,TGI,[44],3.76 µM
same,GI50,[45],19.2 µM
same,TGI,[45],34.5 µM
same,GI50,[46],2640 nM
same,TGI,[46],8.71 µM
same,GI50,[47],2390 nM
same,TGI,[47],6.78 µM
same,GI50,[48],2000 nM
same,TGI,[48],4.2 µM
CONC[C@]1(C)C=C2C(=O)[C@](C)(O)C3(CC3)C(C)=C2[C@H]1O,GI50,[1],2320 nM
same,TGI,[1],15.4 µM
same,GI50,[3],346 nM
same,TGI,[3],5.65 µM
same,GI50,[49],233 nM
same,TGI,[49],565 nM
same,GI50,[4],324 nM
same,TGI,[4],11.3 µM
same,GI50,[5],2330 nM
same,TGI,[5],9.36 µM
same,GI50,[6],518 nM
same,TGI,[6],1970 nM
same,GI50,[7],1600 nM
same,TGI,[7],8.01 µM
same,GI50,[8],688 nM
same,TGI,[8],> 100 µM
same,GI50,[9],1410 nM
same,TGI,[9],4.87 µM
same,GI50,[50],2050 nM
same,TGI,[50],7.89 µM
same,GI50,[10],1840 nM
same,TGI,[10],3.9 µM
same,GI50,[11],485 nM
same,TGI,[11],6.44 µM
same,GI50,[12],1280 nM
same,TGI,[12],2790 nM
same,GI50,[13],384 nM
same,TGI,[13],> 100 µM
same,GI50,[14],9.67 µM
same,TGI,[14],> 100 µM
same,GI50,[15],1050 nM
same,TGI,[15],2490 nM
same,GI50,[16],1.76 µM
same,TGI,[16],3.8 µM
same,GI50,[17],1550 nM
same,TGI,[17],3.01 µM
same,GI50,[51],1480 nM
same,TGI,[51],3.21 µM
same,GI50,[18],1050 nM
same,TGI,[18],4.95 µM
same,GI50,[19],420 nM
same,TGI,[19],6.66 µM
same,GI50,[20],661 nM
same,TGI,[20],> 100 µM
same,GI50,[21],1720 nM
same,TGI,[21],4.62 µM
same,GI50,[52],345 nM
same,TGI,[52],42.4 µM
same,GI50,[22],0.705 µM
same,TGI,[22],4.32 µM
same,GI50,[23],1.27 µM
same,TGI,[23],4.39 µM
same,GI50,[53],1310 nM
same,TGI,[53],4.83 µM
same,GI50,[24],0.858 µM
same,TGI,[24],2.25 µM
same,GI50,[25],353 nM
same,TGI,[25],11 µM
same,GI50,[54],298 nM
same,TGI,[54],46.4 µM
same,GI50,[26],2.95 µM
same,TGI,[26],9.13 µM
same,GI50,[27],3320 nM
same,TGI,[27],19.2 µM
same,GI50,[28],1750 nM
same,TGI,[28],5.88 µM
same,GI50,[29],1770 nM
same,TGI,[29],4.85 µM
same,GI50,[30],2.55 µM
same,TGI,[30],7.26 µM
same,GI50,[55],868 nM
same,TGI,[55],6.63 µM
same,GI50,[31],298 nM
same,TGI,[31],5.34 µM
same,GI50,[32],410 nM
same,TGI,[32],1650 nM
same,GI50,[33],314 nM
same,TGI,[33],1470 nM
same,GI50,[34],1810 nM
same,TGI,[34],3.78 µM
same,GI50,[35],1380 nM
same,TGI,[35],3.4 µM
same,GI50,[36],422 nM
same,TGI,[36],1.89 µM
same,GI50,[37],1.63 µM
same,TGI,[37],4.55 µM
same,GI50,[38],1050 nM
same,TGI,[38],18.8 µM
same,GI50,[39],754 nM
same,TGI,[39],6.12 µM
same,GI50,[40],1.02 µM
same,TGI,[40],4.67 µM
same,GI50,[56],1650 nM
same,TGI,[56],6.9 µM
same,GI50,[41],650 nM
same,TGI,[41],> 100 µM
same,GI50,[42],2660 nM
same,TGI,[42],7.96 µM
same,GI50,[57],1440 nM
same,TGI,[57],4.35 µM
same,GI50,[58],1070 nM
same,TGI,[58],12.8 µM
same,GI50,[43],1780 nM
same,TGI,[43],> 100 µM
same,GI50,[44],436 nM
same,TGI,[44],16.5 µM
same,GI50,[45],2.23 µM
same,TGI,[45],5.39 µM
same,GI50,[46],2120 nM
same,TGI,[46],7.58 µM
same,GI50,[47],570 nM
same,TGI,[47],6.66 µM
same,GI50,[48],2900 nM
same,TGI,[48],9.09 µM
